Key:
[1] = molecular target: NL63 S protein (Human coronavirus NL63, UniProt Q6Q1S2); assay: cell-based; design: species or system HCoV-NL63
[2] = molecular target: 229E S protein (Human coronavirus 229E, UniProt P15423); assay: cell-based; design: species or system HCoV-229E
[3] = test system: S proteins of multiple HCoVs; assay type: cell-based
[4] = test system: 229E
[5] = test system: OC43; details: read-out: IC50, live OC43 infection; HCT-8 cells, 100 TCID50, day 5
[6] = test system: NL63; details: read-out: IC50, live NL63 infection; LLC-MK2 cells
[7] = test system: pseudotyped OC43; details: 48 h
[8] = test system: pseudotyped NL63; details: 48 h
[9] = test system: pseudotyped 229E; details: 48 h
[10] = molecular target: OC43 S protein (Human coronavirus OC43, UniProt P36334); assay: cell-based; details: Inhibitory activity of peptides, IC50, HCoV-OC43 cell-cell fusion assay
[11] = molecular target: HR1 domain of SARS-CoV S protein (residues 892 to 970) (SARS-CoV) (UniProt P59594)
[12] = molecular target: HR1 domain of HCoV-229E S protein (residues 785 to 873) (HCoV-229E) (UniProt P15423)
[13] = molecular target: HR1 domain of MERS-CoV S protein (residues 984 to 1062) (MERS-CoV) (UniProt K9N5Q8)
[14] = high or low dose, before and 1, 3, 5 days after final treatment, P > 0.05

Chain of 229E S protein (P15423 16-1173 limits assumed): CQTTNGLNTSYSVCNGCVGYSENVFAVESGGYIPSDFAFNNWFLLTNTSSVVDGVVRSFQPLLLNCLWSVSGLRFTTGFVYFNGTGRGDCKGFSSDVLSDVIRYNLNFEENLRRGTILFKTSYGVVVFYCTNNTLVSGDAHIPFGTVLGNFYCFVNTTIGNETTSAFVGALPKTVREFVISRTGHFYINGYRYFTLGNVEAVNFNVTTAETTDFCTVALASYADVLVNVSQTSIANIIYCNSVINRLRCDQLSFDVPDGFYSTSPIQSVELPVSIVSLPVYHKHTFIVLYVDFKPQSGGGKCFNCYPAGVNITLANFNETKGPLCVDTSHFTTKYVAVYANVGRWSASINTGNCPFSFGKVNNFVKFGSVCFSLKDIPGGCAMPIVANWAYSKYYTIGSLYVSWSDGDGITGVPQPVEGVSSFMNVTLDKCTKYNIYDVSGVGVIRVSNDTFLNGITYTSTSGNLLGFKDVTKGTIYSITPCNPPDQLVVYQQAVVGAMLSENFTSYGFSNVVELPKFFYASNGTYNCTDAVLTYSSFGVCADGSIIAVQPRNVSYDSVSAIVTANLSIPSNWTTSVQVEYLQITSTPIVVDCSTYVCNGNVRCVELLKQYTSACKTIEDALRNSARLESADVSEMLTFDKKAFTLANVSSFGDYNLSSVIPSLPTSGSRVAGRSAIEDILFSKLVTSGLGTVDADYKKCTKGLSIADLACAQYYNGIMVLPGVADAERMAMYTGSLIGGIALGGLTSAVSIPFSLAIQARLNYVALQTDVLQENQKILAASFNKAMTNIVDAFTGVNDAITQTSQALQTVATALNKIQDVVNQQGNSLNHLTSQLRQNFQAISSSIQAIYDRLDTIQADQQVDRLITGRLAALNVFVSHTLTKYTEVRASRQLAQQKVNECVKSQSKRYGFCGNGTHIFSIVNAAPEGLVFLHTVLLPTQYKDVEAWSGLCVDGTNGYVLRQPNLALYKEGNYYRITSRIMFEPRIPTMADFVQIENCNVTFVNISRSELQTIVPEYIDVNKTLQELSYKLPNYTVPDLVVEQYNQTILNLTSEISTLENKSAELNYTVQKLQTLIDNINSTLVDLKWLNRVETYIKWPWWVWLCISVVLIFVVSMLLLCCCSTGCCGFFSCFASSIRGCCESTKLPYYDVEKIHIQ
Chain of NL63 S protein (Q6Q1S2 19-1338 limits assumed): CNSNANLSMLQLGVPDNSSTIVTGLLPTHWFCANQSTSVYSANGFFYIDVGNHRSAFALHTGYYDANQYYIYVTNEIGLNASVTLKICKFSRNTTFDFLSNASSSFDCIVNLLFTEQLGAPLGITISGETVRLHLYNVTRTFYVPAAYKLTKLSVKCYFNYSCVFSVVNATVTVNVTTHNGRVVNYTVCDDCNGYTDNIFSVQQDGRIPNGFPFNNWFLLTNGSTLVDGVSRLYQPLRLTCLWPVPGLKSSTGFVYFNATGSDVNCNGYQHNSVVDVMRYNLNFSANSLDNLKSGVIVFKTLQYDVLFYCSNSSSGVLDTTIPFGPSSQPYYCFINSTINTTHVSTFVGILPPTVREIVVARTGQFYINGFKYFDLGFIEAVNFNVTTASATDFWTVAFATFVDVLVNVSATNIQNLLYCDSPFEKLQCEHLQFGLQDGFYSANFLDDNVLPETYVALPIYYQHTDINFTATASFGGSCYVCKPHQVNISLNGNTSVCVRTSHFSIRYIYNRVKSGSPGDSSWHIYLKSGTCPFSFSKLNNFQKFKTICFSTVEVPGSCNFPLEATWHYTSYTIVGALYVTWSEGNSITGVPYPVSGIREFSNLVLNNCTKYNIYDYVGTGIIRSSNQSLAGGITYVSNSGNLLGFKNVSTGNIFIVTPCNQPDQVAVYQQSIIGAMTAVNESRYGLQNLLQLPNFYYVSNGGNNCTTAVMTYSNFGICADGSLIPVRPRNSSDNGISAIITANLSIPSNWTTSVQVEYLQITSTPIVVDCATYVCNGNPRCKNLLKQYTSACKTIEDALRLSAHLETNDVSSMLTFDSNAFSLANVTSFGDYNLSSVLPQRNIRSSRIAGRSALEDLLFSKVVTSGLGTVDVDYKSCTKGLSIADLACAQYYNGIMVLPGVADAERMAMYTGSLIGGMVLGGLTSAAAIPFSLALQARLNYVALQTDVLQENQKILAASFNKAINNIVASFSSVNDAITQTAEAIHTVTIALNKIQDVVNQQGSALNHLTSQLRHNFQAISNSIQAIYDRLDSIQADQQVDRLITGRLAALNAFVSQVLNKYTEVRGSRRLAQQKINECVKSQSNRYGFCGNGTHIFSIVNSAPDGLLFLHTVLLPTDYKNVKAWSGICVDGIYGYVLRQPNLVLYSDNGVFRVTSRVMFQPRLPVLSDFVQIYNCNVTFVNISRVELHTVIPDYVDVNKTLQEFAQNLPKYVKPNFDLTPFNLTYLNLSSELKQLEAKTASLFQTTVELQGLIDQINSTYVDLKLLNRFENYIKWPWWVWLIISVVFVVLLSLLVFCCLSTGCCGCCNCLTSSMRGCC
Chain of HR1 domain of MERS-CoV S protein (residues 984 to 1062) (MERS-CoV) (K9N5Q8 984-1062): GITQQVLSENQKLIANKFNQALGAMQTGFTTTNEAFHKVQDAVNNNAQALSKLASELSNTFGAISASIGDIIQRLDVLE
Chain of OC43 S protein (P36334 14-1336 limits assumed): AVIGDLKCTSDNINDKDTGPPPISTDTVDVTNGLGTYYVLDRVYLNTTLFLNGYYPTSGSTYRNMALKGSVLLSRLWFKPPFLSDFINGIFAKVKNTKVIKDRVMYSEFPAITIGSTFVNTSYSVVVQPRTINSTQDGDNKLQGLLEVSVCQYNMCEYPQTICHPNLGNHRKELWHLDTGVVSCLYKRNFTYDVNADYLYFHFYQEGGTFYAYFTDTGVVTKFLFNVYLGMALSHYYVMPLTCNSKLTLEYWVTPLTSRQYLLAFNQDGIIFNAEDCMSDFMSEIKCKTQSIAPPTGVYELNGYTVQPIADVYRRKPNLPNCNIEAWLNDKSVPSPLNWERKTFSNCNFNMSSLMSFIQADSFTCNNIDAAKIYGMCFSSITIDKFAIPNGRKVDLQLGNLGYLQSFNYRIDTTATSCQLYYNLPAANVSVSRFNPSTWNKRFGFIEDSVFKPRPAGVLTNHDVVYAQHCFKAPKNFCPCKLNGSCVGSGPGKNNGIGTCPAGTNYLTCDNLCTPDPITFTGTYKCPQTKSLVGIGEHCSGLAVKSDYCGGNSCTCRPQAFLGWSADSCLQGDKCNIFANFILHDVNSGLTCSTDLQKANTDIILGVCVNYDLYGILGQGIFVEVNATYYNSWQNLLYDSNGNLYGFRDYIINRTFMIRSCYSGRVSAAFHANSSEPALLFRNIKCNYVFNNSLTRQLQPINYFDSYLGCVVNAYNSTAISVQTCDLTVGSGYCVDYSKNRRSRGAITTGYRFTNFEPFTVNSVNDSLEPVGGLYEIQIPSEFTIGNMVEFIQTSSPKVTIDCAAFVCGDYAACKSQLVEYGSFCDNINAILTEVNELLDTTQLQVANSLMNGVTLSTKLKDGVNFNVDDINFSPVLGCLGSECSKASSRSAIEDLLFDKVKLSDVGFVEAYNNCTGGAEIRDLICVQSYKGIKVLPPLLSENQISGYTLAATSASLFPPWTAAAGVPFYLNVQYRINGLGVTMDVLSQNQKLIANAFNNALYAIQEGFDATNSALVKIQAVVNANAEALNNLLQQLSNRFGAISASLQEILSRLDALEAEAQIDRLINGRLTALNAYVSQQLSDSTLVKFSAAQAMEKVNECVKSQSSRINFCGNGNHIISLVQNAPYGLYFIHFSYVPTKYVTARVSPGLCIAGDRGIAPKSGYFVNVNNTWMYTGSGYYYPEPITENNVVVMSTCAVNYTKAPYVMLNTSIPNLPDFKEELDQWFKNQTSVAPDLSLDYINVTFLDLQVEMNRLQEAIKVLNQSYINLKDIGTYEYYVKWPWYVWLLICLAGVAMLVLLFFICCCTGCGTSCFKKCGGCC
Chain of HR1 domain of HCoV-229E S protein (residues 785 to 873) (HCoV-229E) (P15423 785-873): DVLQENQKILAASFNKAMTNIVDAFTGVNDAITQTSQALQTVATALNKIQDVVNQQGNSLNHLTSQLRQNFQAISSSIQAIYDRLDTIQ

For `CC[C@H](C)[C@H](NC(=O)[C@H](C)NC(=O)[C@H](CC(=O)O)NC(=O)[C@H](CC(N)=O)NC(=O)[C@@H](NC(=O)CNC(=O)[C@@H](NC(=O)[C@H](Cc1ccccc1)NC(=O)[C@H](C)NC(=O)[C@H](CC(=O)O)NC(=O)[C@@H](NC(=O)[C@@H](NC(=O)[C@H](CC(N)=O)NC(=O)[C@@H](NC(=O)[C@H](CCSC)NC(=O)[C@H](C)NC(=O)[C@H](CCCCN)NC(=O)[C@H](CC(N)=O)NC(=O)[C@H](Cc1ccccc1)NC(=O)[C@H](CO)NC(=O)[C@H](C)NC(=O)[C@H](C)N)[C@@H](C)O)[C@@H](C)CC)C(C)C)[C@@H](C)O)C(C)C)C(=O)N[C@H](C(=O)N[C@@H](CCC(N)=O)C(=O)N[C@H](C(=O)N[C@@H](CO)C(=O)N[C@@H](CCC(N)=O)C(=O)N[C@@H](C)C(=O)N[C@@H](CC(C)C)C(=O)N[C@@H](CCC(N)=O)C(=O)N[C@H](C(=O)N[C@H](C(=O)N[C@@H](C)C(=O)N[C@H](C(=O)N[C@@H](C)C(=O)N[C@@H](CC(C)C)C(=O)N[C@@H](CC(N)=O)C(=O)N[C@@H](CCCCN)C(=O)N[C@H](C(=O)N[C@@H](CCC(N)=O)C(=O)N[C@@H](CC(=O)O)C(=O)N[C@H](C(=O)N[C@H](C(=O)N[C@@H](CC(N)=O)C(=O)N[C@@H](CCC(N)=O)C(=O)N[C@@H](CCC(N)=O)C(=O)NCC(=O)N[C@@H](CC(N)=O)C(=O)N[C@@H](CO)C(=O)N[C@@H](CC(C)C)C(=O)N[C@@H](CC(N)=O)C(=O)N[C@@H](Cc1c[nH]cn1)C(=O)N[C@@H](CC(C)C)C(=O)N[C@H](C(=O)N[C@@H](CO)C(=O)N[C@@H](CCC(N)=O)C(=O)O)[C@@H](C)O)C(C)C)C(C)C)[C@@H](C)CC)[C@@H](C)O)C(C)C)[C@@H](C)O)[C@@H](C)O)[C@@H](C)O` [229E-HR1P], the “Inhibitory effects on NL63-S-mediated cell-cell fusion” value [1] was “moderate inhibitory effects” and the “Inhibitory effects on 229E-S-mediated cell-cell fusion” value [2] was “moderate inhibitory effects”.
In the case of `CC[C@H](C)[C@H](NC(=O)[C@H](CC(N)=O)NC(=O)[C@H](CC(=O)O)NC(=O)[C@@H](NC(=O)[C@H](CC(C)C)NC(=O)[C@@H](NC(=O)[C@H](CCC(N)=O)NC(=O)[C@H](CC(C)C)NC(=O)[C@H](CCCCN)NC(=O)[C@H](CCC(N)=O)NC(=O)[C@@H](NC(=O)[C@@H](NC(=O)[C@H](Cc1ccc(O)cc1)NC(=O)[C@H](CC(N)=O)NC(=O)[C@H](CC(C)C)NC(=O)[C@H](CCC(=O)O)NC(=O)[C@H](C)NC(=O)[C@H](CO)NC(=O)[C@H](CCCCN)NC(=O)[C@H](CC(N)=O)NC(=O)[C@H](CCC(=O)O)NC(=O)[C@H](CC(C)C)NC(=O)[C@@H](NC(=O)[C@H](CO)NC(=O)[C@@H](NC(=O)[C@H](CCC(=O)O)NC(=O)[C@H](CO)NC(=O)[C@@H](NC(=O)[C@H](CC(C)C)NC(=O)[C@H](CC(N)=O)NC(=O)[C@H](CC(C)C)NC(=O)[C@@H](NC(=O)[C@@H](NC(=O)[C@H](CCC(N)=O)NC(=O)[C@H](CC(N)=O)NC(=O)[C@H](Cc1ccc(O)cc1)NC(=O)[C@H](CCC(N)=O)NC(=O)[C@H](CCC(=O)O)NC(=O)[C@@H](NC(=O)[C@@H](N)C(C)C)C(C)C)[C@@H](C)O)[C@@H](C)CC)[C@@H](C)O)[C@@H](C)CC)[C@@H](C)O)[C@@H](C)O)C(C)C)[C@@H](C)O)[C@@H](C)CC)C(=O)N[C@@H](CC(N)=O)C(=O)N[C@@H](CO)C(=O)N[C@H](C(=O)N[C@@H](CC(C)C)C(=O)N[C@H](C(=O)N[C@@H](CC(=O)O)C(=O)N[C@@H](CC(C)C)C(=O)N[C@@H](CCCCN)C(=O)N[C@@H](Cc1c[nH]c2ccccc12)C(=O)N[C@@H](CC(C)C)C(=O)O)C(C)C)[C@@H](C)O` [229E-HR2P], the “Inhibitory activity against β-HCoVs (MERS-CoV, SARS-CoV, OC43) S-mediated fusion” value [3] is reported as “no effective inhibitory activity” and the IC50 [4] is reported as 560 nM.
With `CC[C@H](C)[C@H](NC(=O)[C@H](C)NC(=O)[C@H](CCC(=O)O)NC(=O)[C@H](CCC(=O)O)NC(=O)[C@H](CC(C)C)NC(=O)[C@H](CCCCN)NC(=O)[C@H](CCCCN)NC(=O)[C@H](CCSC)NC(=O)[C@H](CCC(=O)O)NC(=O)[C@H](Cc1ccc(O)cc1)NC(=O)[C@H](CCC(=O)O)NC(=O)[C@H](CC(C)C)NC(=O)[C@H](CC(=O)O)NC(=O)[C@H](CC(C)C)NC(=O)[C@H](Cc1ccccc1)NC(=O)[C@@H](NC(=O)[C@@H](NC(=O)[C@H](CC(N)=O)NC(=O)[C@@H](NC(=O)[C@H](CCC(N)=O)NC(=O)[C@H](CC(=O)O)NC(=O)[C@H](CC(C)C)NC(=O)[C@@H](N)CO)[C@@H](C)CC)C(C)C)[C@@H](C)O)C(=O)N[C@@H](CCCCN)C(=O)N[C@@H](CCCCN)C(=O)N[C@@H](CC(C)C)C(=O)N[C@@H](CCC(=O)O)C(=O)N[C@@H](CCC(=O)O)C(=O)N[C@@H](CO)C(=O)N[C@@H](Cc1ccc(O)cc1)C(=O)N[C@H](C(=O)N[C@@H](CC(=O)O)C(=O)N[C@@H](CC(C)C)C(=O)N[C@@H](CCCCN)C(=O)N[C@@H](CCC(=O)O)C(=O)N[C@@H](CC(C)C)C(=O)O)[C@@H](C)CC` [EK1] the IC50 [5] was 620 nM, the IC50 [6] was 480 nM and the “EK1-specific antibodies in sera (ELISA)” value (2 weeks after intranasal administration) was “No EK1-specific antibodies were detected”. The “weight gain/loss compared to PBS-treated mice” value (20 or 100 mg/kg intranasal every day for 1 week, followed 2 weeks) was “no apparent difference”, the “histopathology of lung, liver, kidney, and spleen sections” value (hematoxylin and eosin, 4 weeks after administration) was “no pathological abnormality” and the “alanine aminotransferase (ALT) in sera versus PBS-treated group” value [14] was “no significant difference”. For the same compound, the “creatinine in sera versus PBS-treated group” value [14] was “no significant difference”, the IC50 [7] was 1810 nM and the IC50 [8] was 6020 nM. For the same compound, the IC50 [4] was 690 nM and the IC50 [9] was 3350 nM.
In the case of `CC[C@H](C)[C@H](NC(=O)[C@H](CC(C)C)NC(=O)CNC(=O)[C@H](CCC(N)=O)NC(=O)[C@H](CC(C)C)NC(=O)[C@H](CCC(=O)O)NC(=O)[C@@H](NC(=O)[C@@H](NC(=O)[C@@H](NC(=O)[C@H](CCC(N)=O)NC(=O)[C@H](Cc1ccccc1)NC(=O)[C@H](CC(C)C)NC(=O)[C@H](CO)NC(=O)[C@H](C)NC(=O)[C@@H](NC(=O)[C@H](CCCCN)NC(=O)[C@H](C)NC(=O)[C@H](CCC(=O)O)NC(=O)[C@H](CC(C)C)NC(=O)[C@H](CCC(N)=O)NC(=O)[C@H](CCCCN)NC(=O)[C@H](CC(C)C)NC(=O)[C@H](CCC(=O)O)NC(=O)[C@H](CO)NC(=O)[C@H](CO)NC(=O)[C@H](CC(C)C)NC(=O)[C@H](CC(N)=O)NC(=O)[C@H](CC(C)C)NC(=O)[C@H](Cc1ccc(O)cc1)NC(=O)[C@@H](NC(=O)[C@H](CC(C)C)NC(=O)[C@H](CC(N)=O)NC(=O)[C@H](Cc1ccccc1)NC(=O)[C@@H]1CCCN1C(=O)[C@@H](NC(=O)[C@H](CC(C)C)NC(=O)[C@@H](N)CC(=O)O)[C@@H](C)O)[C@@H](C)O)[C@@H](C)O)[C@@H](C)O)[C@@H](C)O)C(C)C)C(=O)N[C@@H](CC(=O)O)C(=O)N[C@@H](CCC(N)=O)C(=O)N[C@H](C(=O)N[C@@H](CC(N)=O)C(=O)N[C@@H](CO)C(=O)N[C@H](C(=O)N[C@@H](Cc1ccc(O)cc1)C(=O)N[C@H](C(=O)N[C@@H](CC(=O)O)C(=O)N[C@@H](CC(C)C)C(=O)N[C@@H](CCCCN)C(=O)N[C@@H](CC(C)C)C(=O)N[C@@H](CC(C)C)C(=O)O)C(C)C)[C@@H](C)O)[C@@H](C)CC` [NL63-HR2P], the “Inhibitory activity against β-HCoVs (MERS-CoV, SARS-CoV, OC43) S-mediated fusion” value [3] is reported as “no effective inhibitory activity”.
`CC[C@H](C)[C@H](NC(=O)[C@H](CC(=O)O)NC(=O)[C@H](CCCCN)NC(=O)[C@H](CC(C)C)NC(=O)[C@H](CC(N)=O)NC(=O)[C@@H](NC(=O)[C@H](Cc1ccc(O)cc1)NC(=O)[C@H](CO)NC(=O)[C@H](CCC(N)=O)NC(=O)[C@H](CC(N)=O)NC(=O)[C@H](CC(C)C)NC(=O)[C@@H](NC(=O)[C@H](CCCCN)NC(=O)[C@@H](NC(=O)[C@H](C)NC(=O)[C@H](CCC(=O)O)NC(=O)[C@H](CCC(N)=O)NC(=O)[C@H](CC(C)C)NC(=O)[C@H](CCCNC(=N)N)NC(=O)[C@H](CC(N)=O)NC(=O)[C@H](CCSC)NC(=O)[C@H](CCC(=O)O)NC(=O)[C@H](CC(=O)O)NC(=O)[C@H](CCC(N)=O)NC(=O)[C@H](CC(C)C)NC(=O)[C@H](CC(=O)O)NC(=O)[C@H](CC(C)C)NC(=O)[C@H](Cc1ccccc1)NC(=O)[C@@H](NC(=O)[C@@H](NC(=O)[C@H](CC(N)=O)NC(=O)[C@@H](NC(=O)[C@H](Cc1ccc(O)cc1)NC(=O)[C@H](CC(=O)O)NC(=O)[C@H](CC(C)C)NC(=O)[C@@H](N)CO)[C@@H](C)CC)C(C)C)[C@@H](C)O)[C@@H](C)CC)C(C)C)[C@@H](C)CC)C(=O)O` [OC43-HR2P] showed an IC50 [5] of 930 nM, an IC50 ([1]; Inhibitory activity of peptides, IC50, HCoV-NL63 cell-cell fusion assay) of 940 nM and an IC50 ([2]; Inhibitory activity of peptides, IC50, HCoV-229E cell-cell fusion assay) of 840 nM. For the same compound, the IC50 [10] was 660 nM.
OC43-HR2P (peptide) gave an IC50 of inhibition of SARS-CoV S-mediated cell-cell fusion [11] of 540 nM, an IC50 of inhibition of 229E S-mediated cell-cell fusion [12] of 840 nM and an IC50 of inhibition of MERS-CoV S-mediated cell-cell fusion [13] of 390 nM.

— paper PMC6457931 (Science Advances, 2019)
